Reference: patent publication US7601746B2 (Shionogi & Co., Ltd., priority 2003, dated 2009)

target: T1, human TPO receptor (hTPOR) (Homo sapiens, UniProt P40238); assay: Thrombopoietic activity: proliferation of TPO dependent BaF/hTPOR cells (WST-1, absorbance at 450 nm); format: cell-based; details: 20 h + 4 h WST-1, ED50 = half concentration of the concentration showing the maximum thrombopoietic activity, Table 1
T1 construct: expressed in transfected cells; host or cells: BaF-B03 (murine IL-3 dependent cell line)
T1 sequence (P40238 26-635): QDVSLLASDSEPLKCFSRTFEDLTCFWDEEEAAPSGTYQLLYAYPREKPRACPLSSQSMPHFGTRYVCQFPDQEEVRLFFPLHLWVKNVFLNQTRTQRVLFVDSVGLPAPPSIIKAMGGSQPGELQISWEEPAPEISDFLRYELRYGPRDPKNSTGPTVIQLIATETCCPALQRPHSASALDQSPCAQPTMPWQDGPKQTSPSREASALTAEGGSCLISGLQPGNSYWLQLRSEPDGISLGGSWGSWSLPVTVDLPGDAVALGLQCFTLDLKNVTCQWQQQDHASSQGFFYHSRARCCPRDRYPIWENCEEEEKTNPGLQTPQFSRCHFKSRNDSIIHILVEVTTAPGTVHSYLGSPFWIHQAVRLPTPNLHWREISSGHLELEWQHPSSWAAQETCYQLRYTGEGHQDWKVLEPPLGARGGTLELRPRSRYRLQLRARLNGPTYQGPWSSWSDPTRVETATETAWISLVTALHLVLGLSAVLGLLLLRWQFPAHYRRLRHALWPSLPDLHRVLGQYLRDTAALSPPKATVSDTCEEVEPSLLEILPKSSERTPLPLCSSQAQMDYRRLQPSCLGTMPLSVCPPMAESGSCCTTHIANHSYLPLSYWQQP
From the text: The TPO dependent BaF/hTPOR cell line which was established by introducing human TPO receptor (hTPOR) into BaF-B03 cells according to Collins et al (J. Cell. Physiol., 137:293-298 (1988)) was used to test the thrombopoietic activity of the present compound. The DNA sequences and encoded peptide sequences for human hTPOR have been described by Vigon et al (Proc. Natl. Acad. Sci. USA, 89:5640-5644 (1992)). TPO dose not have any ability to support proliferation of interlukin-3 dependent parental cell line BaF-B03. BAF/hTPOR cells were maintained in RPMI medium and WEHI-3B conditioned medium as a source of murine interleukin-3 (IL-3). These cells were washed and resuspended in RPMI medium without a source of murine IL-3 and seeded into each well of 96-well microtiter plates at a density of 5×10^4 cells per well in the absence or presence of various concentration of hTPO or the present compound. After incubation at 37° C. for 20 hours in the 5% CO2 incubator, 10% WST-1 reagent (Takara Biomedicals, Japan) was added to each wells and the cells were further incubated for 4 hours. The absorbance at 450 nm was measured. Tables 1 and 2 exemplify the ED50 for tested compounds of the present invention, wherein the ED50 is the half concentration of the concentration showing the maximum thrombopoietic activity.

EC50	Compound
13.9 nM	CCCCCCCCOc1cccc(-c2csc(NC(=O)c3cc(F)c(/C=C(\C)C(=O)O)c(F)c3)n2)c1OC [Compound B2004, (E)-3-{2,6-difluoro-4-[4-(2-methyloxy-3-octyloxyphenyl)thiazol-2-ylcarbamoyl]phenyl}-2-methylacrylic acid]
0.43 nM	CCCCCOC(CCCC)c1cccc(-c2csc(NC(=O)c3cc(Cl)c(C=C(C)C(=O)O)c(Cl)c3)n2)c1F (stereo not drawn) [Compound B70, 3-(2,6-dichloro-4-{4-[2-fluoro-3-(1-n-pentyloxypentyl)phenyl]thiazol-2-ylcarbamoyl}phenyl)-2-methylacrylic acid]
10.9 nM	COc1c(CCCOCC2CCCC2)cccc1-c1csc(NC(=O)c2cc(F)c(/C=C(\C)C(=O)O)c(F)c2)n1 [Compound B1948, (E)-3-(4-{4-[3-(3-cyclopentylmethyloxypropyl)-2-methyloxyphenyl]thiazol-2-ylcarbamoyl}-2,6-difluorophenyl)-2-methylacrylic acid]
0.91 nM	CC(=Cc1c(Cl)cc(C(=O)Nc2nc(-c3cccc(CCCOCC(C)(C)C)c3F)cs2)cc1Cl)C(=O)O [Compound B66, 3-[2,6-dichloro-4-(4-{3-[3-(2,2-dimethylpropyloxy)propyl]-2-fluorophenyl]thiazol-2-ylcarbamoyl}phenyl)-2-methylacrylic acid]
0.81 nM	CC(=Cc1c(F)cc(C(=O)Nc2nc(-c3cccc(CCCOCC(C)(C)C)c3F)cs2)cc1F)C(=O)O [Compound B20]
0.76 nM	CCCCCCCCCC(OC)c1cccc(-c2csc(NC(=O)c3cc(Cl)c(C=C(C)C(=O)O)c(Cl)c3)n2)c1F (stereo not drawn) [Compound B61, 3-(2,6-dichloro-4-{4-[2-fluoro-3-(1-methyloxydecyl)phenyl]thiazol-2-ylcarbamoyl}phenyl)-2-methylacrylic acid]
0.67 nM	CCOCCCCOC(c1cccc(-c2csc(NC(=O)c3cc(F)c(C=C(C)C(=O)O)c(F)c3)n2)c1F)C1CCCCC1 (stereo not drawn) [Compound B21, 3-[4-(4-{3-[1-cyclohexyl-1-(4-ethyloxybutyloxy)methyl]-2-fluorophenyl]thiazol-2-ylcarbamoyl}-2,6-difluorophenyl)-2-methylacrylic acid]
0.39 nM	CCCCCOC(CCCC)c1cccc(-c2csc(NC(=O)c3cc(F)c(C=C(C)C(=O)O)c(F)c3)n2)c1F (stereo not drawn) [Compound B26, 3-(2,6-difluoro-4-{4-[2-fluoro-3-(1-n-pentyloxypentyl)phenyl]thiazol-2-ylcarbamoyl}phenyl)-2-methylacrylic acid]
15.9 nM	COc1c(CCCOCC(C)(C)C)cccc1-c1csc(NC(=O)c2cc(F)c(/C=C(\C)C(=O)O)c(F)c2)n1 [Compound B488]

The remaining lines, values behind:

Compound	EC50
CCC(CC)OCc1cccc(-c2csc(NC(=O)c3cc(Cl)c(/C=C(\C)C(=O)O)c(Cl)c3)n2)c1OC [Compound B1892, (E)-3-(2,6-dichloro-4-{4-[3-(1-ethylpropyloxymethyl)-2-methyloxyphenyl]thiazol-2-ylcarbamoyl}phenyl)-2-methylacrylic acid]	11.6 nM
CCCCOC(CC)c1cccc(-c2csc(NC(=O)c3cc(Cl)c(C=C(C)C(=O)O)c(Cl)c3)n2)c1F (stereo not drawn) [Compound B82, 3-(4-{4-[3-(1-n-butyloxypropyl)-2-fluorophenyl]thiazol-2-ylcarbamoyl}-2,6-dichlorophenyl)-2-methylacrylic acid]	1.07 nM
CCCCCCOCCc1cccc(-c2csc(NC(=O)c3cc(F)c(/C=C(\OC)C(=O)O)c(F)c3)n2)c1OC [Compound B1927, (Z)-3-(2,6-difluoro-4-{4-[3-(2-hexyloxyethyl)-2-methyloxyphenyl]thiazol-2-ylcarbamoyl)phenyl)-2-methyloxyacrylic acid]	19.4 nM
CCC(OCCC(C)C)c1cccc(-c2csc(NC(=O)c3cc(Cl)c(C=C(C)C(=O)O)c(Cl)c3)n2)c1F (stereo not drawn) [Compound B74, 3-[2,6-dichloro-4-(4-{2-fluoro-3-[1-(3-methylbutyloxy)proptyl]phenyl}thiazol-2-ylcarbamoyl)phenyl]-2-methylacrylic acid]	0.8 nM
CCCCCOC(c1cccc(-c2csc(NC(=O)c3cc(F)c(/C=C(\C)C(=O)O)c(F)c3)n2)c1OC)C1CCCCC1 (stereo not drawn) [Compound B484]	1.29 nM
CCCCCOC(CCC)c1cccc(-c2csc(NC(=O)c3cc(Cl)c(C=C(C)C(=O)O)c(Cl)c3)n2)c1F (stereo not drawn) [Compound B80, 3-(2,6-dichloro-4-{4-[2-fluoro-3-(1-n-pentyloxybutyl)phenyl]thiazol-2-ylcarbamoyl}phenyl)-2-methylacrylic acid]	0.7 nM
CCCCOCCCc1cccc(-c2csc(NC(=O)c3cc(Cl)c(C=C(C)C(=O)O)c(Cl)c3)n2)c1F [Compound B93, 3-(4-{4-[3-(3-n-butyloxypropyl)-2-fluorophenyl]thiazol-2-ylcarbamoyl}-2,6-dichlorophenyl]-2-methylacrylic acid]	0.91 nM
CCCCCCCCCCCC(OC)c1cccc(-c2csc(NC(=O)c3cc(F)c(C=C(C)C(=O)O)c(F)c3)n2)c1F (stereo not drawn) [Compound B48, 3-(2,6-difluoro-4-{4-[2-fluoro-3-(1-methyloxydodecyl)phenyl]thiazol-2-ylcarbamoyl}phenyl)-2-methylacrylic acid]	2.23 nM
CCC(CC)COCc1cccc(-c2csc(NC(=O)c3cc(Cl)c(/C=C(\OC)C(=O)O)c(Cl)c3)n2)c1OC [Compound B2026, (Z)-3-(2,6-dichloro-4-{4-[3-(2-ethylbutyloxymethyl)-2-methyloxyphenyl]thiazol-2-ylcarbamoyl}phenyl)-2-methyloxyacrylic acid]	12.6 nM
CCCOCCCc1cccc2c1OCc1sc(NC(=O)c3cc(Cl)c(/C=C(\C)C(=O)O)c(Cl)c3)nc1-2 [Compound A1123, (E)-3-{2,6-dichloro-4-[6-(3-propyloxypropyl)-4H-chromeno[4,3-d]thiazol-2-ylcabamoyl]phenyl}-2-methylacrylic acid]	7.27 nM
CCCCCCc1cccc2c1OCc1sc(NC(=O)c3cc(F)c(/C=C(\C)C(=O)O)c(F)c3)nc1-2 [Compound A1314, (E)-3-[2,6-difluoro-4-(6-hexyl-4H-chromeno[4,3-d]thiazol-2-ylcabamoyl)phenyl]-2-methylacrylic acid]	12.5 nM
COc1c(COCCC(C)(C)C)cccc1-c1csc(NC(=O)c2cc(Cl)c(C=C(C)C(=O)O)c(Cl)c2)n1 (stereo in doubt) [Compound B1936, (Z)-3-(2,6-dichloro-4-{4-[3-(3,3-dimethylbutyloxymethyl)-2-methyloxyphenyl]thiazol-2-ylcarbamoyl}phenyl)-2-methylacrylic acid]	17.1 nM
CCCOCCCC(OC)c1cccc(-c2csc(NC(=O)c3cc(F)c(/C=C(\C)C(=O)O)c(F)c3)n2)c1OC (stereo not drawn) [Compound B1799, (E)-3-(2,6-difluoro-4-{4-[2-methyloxy-3-(1-methyloxy-4-propyloxybutyl)phenyl]thiazol-2-ylcarbamoyl}phenyl)-2-methylacrylic acid]	17.3 nM
COc1c(COCCCC(C)C)cccc1-c1csc(NC(=O)c2cc(Cl)c(/C=C(\C)C(=O)O)c(Cl)c2)n1 [Compound B1940]	18.8 nM
COc1c(CCCOCCC(C)(C)C)cccc1-c1csc(NC(=O)c2cc(F)c(/C=C(\C)C(=O)O)c(F)c2)n1 [Compound B521, (E)-3-[4-(4-{3-[3-(3,3-dimethylbutyloxy)propyl]-2-methyloxyphenyl}thiazol-2-ylcarbamoyl}-2,6-difluorophenyl)-2-methylacrylic acid]	16.9 nM
CCCOCCCc1cccc(-c2csc(NC(=O)c3cc(Cl)c(C=C(C)C(=O)O)c(Cl)c3)n2)c1F [Compound B95, 3-(2,6-dichloro-4-{4-[2-fluoro-3-(3-n-propyloxypropyl)phenyl]thiazol-2-ylcarbamoyl)phenyl]-2-methylacrylic acid]	0.82 nM

same assay, conditions: 20 h + 4 h WST-1, ED50 = half concentration of the concentration showing the maximum thrombopoietic activity, Table 2

EC50	Compound
28.6 nM	COc1c(CCOCCCCCl)cccc1-c1csc(NC(=O)c2cc(Cl)c(/C=C(\C)C(=O)O)c(Cl)c2)n1 [Compound B1963, (E)-3-[2,6-dichloro-4-(4-{3-[2-(4-chlorobutyloxy)ethyl]-2-methyloxyphenyl}thiazol-2-ylcarbamoyl)phenyl]-2-methylacrylic acid]
21.3 nM	COc1c(CCCOCC2CCC2)cccc1-c1csc(NC(=O)c2cc(Cl)c(/C=C(\C)C(=O)O)c(Cl)c2)n1 [Compound B1855, (E)-3-(2,6-dichloro-4-{4-[3-(3-cyclobutylmethyloxypropyl)-2-methyloxyphenyl]thiazol-2-ylcarbamoyl}phenyl)-2-methylacrylic acid]
